From ChEMBL document CHEMBL1782024, “Chisomicines A-C, limonoids from Chisocheton ceramicus” (J Nat Prod, 2011)
Active and inactive are the calls of the source. No cut-off for these calls is given here.

How the values were obtained:
[1] = test system: J774.1; assay: Inhibition of LPS-induced nitric oxide production in mouse J774.1 cells after 24 hrs by griess assay; assay type: functional, cell-based; details: for IC50: J774.1, 24 h
[2] = Cytotoxicity against mouse J774.1 cells after 2 hrs by MTT assay; assay type: cell-based; details: j774.1, 2 h

COC(=O)C[C@H]1C(C)(C)[C@@H]2O[C@@]34C[C@@H]2C(=O)[C@]1(C)[C@H]3CC[C@]1(C)C4CC(=O)O[C@@H]1c1ccoc1 (some centres not stated)
inhibition [1]: inactive

C/C=C(\C)C(=O)O[C@@H]1C2C=C3[C@H](CC[C@@]4(C)[C@H](c5ccoc5)OC(=O)C[C@@]34O)[C@@]3(C)[C@@H](CC(=O)OC)[C@@]1(C)CO[C@@]23O
inhibition [1]: inactive

COC(=O)C[C@H]1C(C)(C)[C@H](O)[C@@H]2CC3=C4CC(=O)O[C@@H](c5ccoc5)[C@]4(C)CC[C@@H]3[C@@]1(C)C2=O
inhibition [1]: inactive

C/C=C(\C)C(=O)O[C@@H]1/C=C\C2=C3CC(=O)O[C@@H](c4ccoc4)[C@]3(C)CC[C@@H]2[C@@]2(C)C(=O)C[C@]1(C)[C@@H]2CC(=O)OC [CHISOMICINE A]
Activity [2]: Toxic | IC50 [1]: 20.2 µM

CNC(=N)NCCC[C@H](N)C(=O)O [TILARGININE]
IC50 [1]: 13.8 µg/mL

C/C=C(\C)C(=O)O[C@@H]1C2[C@H]3O[C@]34[C@@H]3CC(=O)O[C@@H](c5ccoc5)[C@]3(C)CC[C@@H]4[C@@]3(C)[C@@H](CC(=O)OC)[C@@]1(C)C[C@@]23O (some centres not stated)
inhibition [1]: inactive
